Experiment: Agilent ZORBAX 300 SB-C18, 150 × 1 mm, 3.5 µm; A: water + 0.01% heptafluorobutyric acid; B: acetonitrile + 0.01% heptafluorobutyric acid; gradient (min/%B) 0/0 100/90
Settings: stereoisomer not certain

| LC retention time | Structure (SMILES) |
| --- | --- |
| 8.77 min | CCNCC(=O)Nc1c(C)cccc1C |
| 15.9 min | CCOc1cc(C(=O)N(CC)c2ccccc2)cc(OCC)c1OCC |
| 18 min | COC(=O)c1ccc(C(=O)OC)c(NC(=O)CC(c2ccccc2)c2ccccc2)c1 |
| 9.36 min | O=C(O)CN=C1NC2(CCCCC2)Cc2ccccc21 |
| 14.1 min | Cc1cccc(N2CN(Cc3ccccc3)CNC2=S)c1C |
| 6.32 min | NC(CC(=O)O)c1ccc(C(=O)O)cc1 (stereo not given) |
| 9.59 min | c1ccc(-n2nnnc2-n2ccnc2)cc1 |
| 7.9 min | O=C(NN=Cc1cccnc1)c1ccccn1 |
| 7.51 min | O=C(O)CCc1nn2c3ccccc3n(CC(=O)O)c2nc1=O |
| 8.34 min | Nc1cccc2cc3ccccc3nc12 |
| 7.28 min | c1cc(CCc2ccncc2)ccn1 |
| 10.2 min | CCN(Cc1ccncc1)C(=S)NCCc1ccccc1 |
| 11.8 min | O=C(NCCc1c[nH]c2ccccc12)c1c[nH]c2ccccc12 |
| 9.59 min | NC(=S)NCCc1ccccc1 |
| 8.8 min | CN1CCc2cccc3c2C1Cc1ccc(O)c(O)c1-3 (stereo not given) |
| 8.88 min | Cc1ccc(C(=O)Nc2ccccc2C(=O)N2CCN(C)CC2)cc1 |
| 8.35 min | CC(=O)Nc1cccc(C(C)=O)c1 |
| 14.9 min | c1ccc(C(c2ccccc2)c2nc(-c3ccncc3)no2)cc1 |
| 13.2 min | Cc1cc(C)nc(SCc2nc3ccccc3nc2C)n1 |
| 10.8 min | CCN1CN(Cc2ccccc2)CNC1=S |
| 10.7 min | CCCCCC[N+](C)(C)Cc1ccccc1 |
| 8.46 min | Cc1ccc(CNC(C)(C)C)s1 |
| 8.43 min | CC(C(=O)c1ccccc1)[n+]1ccccc1 (stereo not given) |
| 11 min | CCC(C)c1ccccc1NC(=S)Nc1cccnc1 (stereo not given) |
| 14.3 min | COC(=O)c1ccc(NC(=O)Nc2cccc3ccccc23)cc1 |

| LC retention time | Structure (SMILES) |
| --- | --- |
| 16.4 min | CC(C)(C)c1ccc(-c2cc(C(=O)O)c3c(ccc4ccccc43)n2)cc1 |
| 10.4 min | NC(Cc1ccccc1)C(=O)Nc1ccc2ccccc2c1 (stereo not given) |
| 11.1 min | O=c1cnc(-c2ccccc2)c(-c2ccccc2)[nH]1 |
| 10.8 min | Cc1ccc(NC(=O)C=CC(=O)O)c(C)c1 |
| 7.09 min | c1ccc2[nH]cnc2c1 |
| 14.4 min | S=C(NCc1ccccc1)Nc1cccc2ccccc12 |
| 12.4 min | CC1CCCCN1C(=O)c1ccccc1NC(=O)c1ccco1 (stereo not given) |
| 12.5 min | CC(=O)Nc1c(C)cc(C)cc1NC(=O)c1cc2ccccc2o1 |
| 12.3 min | O=C(O)C1CCCc2c1[nH]c1ccccc21 (stereo not given) |
| 7.9 min | CNCc1cccc(OC)c1OC |
| 1.78 min | NC(=O)c1ccc[n+](C2OC(COP(=O)(O)O)C(O)C2O)c1 (stereo not given) |
| 7.33 min | Cc1nc2ccc(N)cc2nc1C |
| 4.28 min | OCc1cccnc1 |
| 9.44 min | c1ccc(-n2cnnn2)cc1 |
| 15.1 min | c1ccc(-c2cc3cc4c(cc3[nH]2)OCO4)cc1 |
| 9.82 min | Cc1cn(COCc2ccccc2)c(=O)[nH]c1=O |
| 12.2 min | O=C(C=Cc1ccccc1O)c1ccc(O)cc1O |
| 10.1 min | CN1CCOC(c2ccccc2)c2ccccc2C1 (stereo not given) |
| 13.3 min | CC(=O)Oc1ccc2c(c1)cc(C)n2C |
| 8.43 min | Nc1cccc2c1CCC2 |
| 9.17 min | CCCNC(C)C(=O)Nc1ccccc1C (stereo not given) |
| 8.48 min | CC(NCCc1ccc(O)cc1)C(O)c1ccc(O)cc1 (stereo not given) |
| 7.67 min | C=CC[n+]1ccc2ccccc2c1 |
| 17.1 min | CCc1c(C)[nH]c(C(=O)OCc2ccccc2)c1C |
| 18.8 min | c1ccc(Cn2c3ccccc3c3ccccc32)cc1 |

| LC retention time | Structure (SMILES) |
| --- | --- |
| 9.03 min | COC(=O)CCc1ccc(C)c(N)c1 |
| 11.8 min | CCCCOc1cc(C(=O)NCCN(CC)CC)c2ccccc2n1 |
| 9.06 min | Cc1[nH]c(=S)[nH]c1-c1ccccc1 |
| 2.98 min | Nc1ccc[nH]c1=O |
| 15.7 min | O=C(NCCc1ccco1)c1cccc2c1oc1ccccc12 |
| 7.24 min | Nc1ccc(NC(=O)Nc2ccc(N)cc2)cc1 |
| 15.8 min | Cc1ccc(C)c2c1ccn2C |
| 15.8 min | c1ccc(Oc2nnc(-c3ccccc3)c3ccccc23)cc1 |
| 15.4 min | c1ccc(Nc2ccccc2)cc1 |
| 8.68 min | CC(N)=C1C(=O)C(=O)N(C)C1c1ccccc1 (stereo not given) |
| 7.66 min | CC(=O)N=Nc1c(O)[nH]c2ccccc12 |
| 9.12 min | COc1ccccc1-n1c(=O)n2n(c1=O)CCCC2 |
| 11.2 min | COc1c(C)cccc1C(=O)NC(CC(C)C)C(N)=O (stereo not given) |
| 11.6 min | CC(=O)Oc1c[nH]c2ccccc12 |
| 6.42 min | O=C(O)c1cc(-c2ccccc2)c(C(=O)O)cn1 |
| 8.37 min | Cc1nn(CC(=O)NCc2ccccn2)c(=O)c2ccccc12 |
| 15.2 min | CCOC(=O)C(Cc1ccc(NC(=O)c2ccccc2)cc1)N1C(=O)c2ccccc2C1=O (stereo not given) |
| 13 min | O=C1c2ccccc2-c2nc3ccccc3nc21 |
| 12 min | O=C1CN(C(=O)CCCc2c[nH]c3ccccc23)c2ccccc2N1 |
| 8.76 min | O=c1c2n[nH]nc2cnn1-c1ccccc1 |
| 7.69 min | Cc1cccnc1CN1CCN(Cc2ncccc2C)CC1 |
| 11.9 min | O=C(Oc1ccccc1)c1cccnc1 |
| 8.56 min | c1cncc(CNc2c3c(nc4ccccc24)CCC3)c1 |
| 9.34 min | c1cc(-c2nn[nH]n2)cc(-n2cccn2)c1 |

Further lines, the compound ahead of its results:

| Structure (SMILES) | LC retention time |
| --- | --- |
| Cc1ccc(N)c(N)c1 | 7.42 min |
| NC1=NCCS1 | 5.28 min |
| COC(C)C(N)=O (stereo not given) | 2.9 min |
| CCCCCCCCSCCSC(=N)N | 12.7 min |
| NCCCCCCCCCCN | 7.57 min |
| Cc1cc(C)[nH]n1 | 6.99 min |
| NC(CO)(CO)CO | 2.86 min |
| CC1(C)CC(=NNC(=O)C(=O)NN=C2CC(C)(C)NC(C)(C)C2)CC(C)(C)N1 | 7.32 min |
| Cc1cccc(N)c1 | 8.01 min |
| C[N+]1(C)CCCCC1 | 5.95 min |
| Cc1ccc2cccc(SC(c3ccccc3)c3ccccc3)c2n1 | 17.5 min |
| CCCCCCCCCCCCCCCCN | 16.7 min |
| COc1cccc(C2CC(=O)Nc3cc4c(cc32)OCO4)c1OC (stereo not given) | 12 min |
| CN(N)c1nc(N2CCCC2)nc(N2CCCC2)n1 | 10.3 min |
| CN1C(=O)C(CC(=O)NC2CCCCC2)N(C)C1=O (stereo not given) | 8.55 min |
| CC(N)(CO)CO | 3.29 min |
| O=C1c2ccccc2C(O)(c2ccccc2)N1C(c1ccccc1)c1ccccc1 (stereo not given) | 16.8 min |
| O=C(Nc1ccc2c(c1)oc1ccccc12)c1ccc(C2CCCCC2)cc1 | 20.1 min |
| O=C1CC2(CCCC2)CC(=O)N1CCCCN1CCN(c2ncccn2)CC1 | 10.2 min |
| Cn1c2c(c(=O)[nH]c1=O)C(c1ccccc1)C1=C(N2)c2ccccc2C1=O (stereo not given) | 10.6 min |
| Cc1ccc(-n2c(O)c(C=Nc3ccc(O)cc3C)c(=O)[nH]c2=O)cc1 | 10.9 min |
| C=CCNCC=C | 7.07 min |
| Cc1cc2n(n1)c1cc(C)nn1c1cc(C)nn21 | 11.1 min |
| Cn1c(N)nc2nc[nH]c2c1=O | 6.36 min |
| CC(=O)C1(O)CCC2C3CC(C)C4=CC(=O)CCC4(C)C3CCC21C (stereo not given) | 15.2 min |
| CCC1(CC)C(=O)NCC(C)C1=O (stereo not given) | 9.1 min |

| Structure (SMILES) | LC retention time |
| --- | --- |
| COc1ccc2c(c1)CCC1C2CCC2(C)C(=O)C(=Cc3ccccc3)CC12 (stereo not given) | 21.4 min |
| Cc1cccc(N)c1C | 8.05 min |
| c1nc[nH]n1 | 1.93 min |
| CC(C)(C)c1ccc(C2Nc3ccccc3C(=O)N2c2ccccc2)cc1 (stereo not given) | 16.7 min |
| CC(C)(C)NCCNC(C)(C)C | 7.46 min |
| Cc1cc(=O)[nH]c(C(C)C)n1 | 6.9 min |
| Cn1cc(C(=O)O)c2ccccc21 | 9.81 min |
| CN(C)CCCN1CCC(O)C2CCCCC21 (stereo not given) | 7.19 min |
| NCCNCCNCCN | 7.5 min |
| Nc1cc(-c2ccc(C(=O)c3ccccc3)c(N)c2)ccc1C(=O)c1ccccc1 | 16.4 min |
| COc1ccc(-c2oc3ccccc3c(=O)c2OC)cc1OC | 13.4 min |
| CNC(C)C(O)c1ccccc1 (stereo not given) | 8.37 min |
| CC(C)(N)Cc1ccccc1 | 8.82 min |
| CCCC[N+](CCCC)(CCCC)CCCC | 13.2 min |
| CCCCCCC[n+]1ccc(-c2cc[n+](CCCCCCC)cc2)cc1 | 10.5 min |
| CCN(CC)c1ccc(C=NNC(=O)C(C)Nc2ccc3ccccc3c2)cc1 (stereo not given) | 14.3 min |
| CN1CCN(C(=O)c2cc(C(C)(C)C)cc(C(C)(C)C)c2)CC1 | 11.6 min |
| Cc1c(C(=O)Nc2ccccn2)c(C(C)N=Nc2ccccc2)cc(=O)n1-c1ccccn1 (stereo not given) | 11.7 min |
| O=C(CN1C(=O)c2ccccc2C1=O)Nc1ccccc1C(=O)N1CCN(c2ccccc2)CC1 | 13.1 min |
| O=C1CC(N2CCN(C(c3ccccc3)c3ccccc3)CC2)C(=O)N1c1ccccc1 (stereo not given) | 11.2 min |
| CC1(C)CC(NCC(=O)OC2CCCCC2)CC(C)(C)N1 | 8.55 min |
| NC(=O)C1CCCOC1 (stereo not given) | 5.49 min |
| CC1(C)CC(N)CC(C)(CN)C1 (stereo not given) | 7.39 min |
| Cc1cc2ncn(Cc3c(C)c(C)cc(C)c3C)c2cc1C | 13 min |
| CNC(=S)NNC(C)=O | 2.17 min |
